Reference: ChEMBL document CHEMBL1148137, “Multibranched polyunsaturated and very-long-chain fatty acids of freshwater Israeli sponges” (J Nat Prod, 2002)

Key:
Saccharomyces cerevisiae = test: Antifungal activity against Saccharomyces cerevisiae at 50 ug/disk; type: functional
Artemia salina = test: Toxicity to Artemia salina assessed as mortality after 24 hrs; type: organism-based; details: in vivo
Bacillus subtilis = test: Antibacterial activity against Bacillus subtilis CCM 2216 at 50 ug/disk; type: functional; parameters: unit not given here
Escherichia coli = test: Antibacterial activity against Escherichia coli at 50 ug/disk; type: functional
Staphylococcus aureus = test: Antibacterial activity against Staphylococcus aureus CCM 2551 at 50 ug/disk; type: functional; parameters: unit not given here; details: read-out: Diameter of inhibition zone
[1] = read-out: Diameter of inhibition zone

Structure (SMILES) | zone of inhibition at 50 µg/disc (Saccharomyces cerevisiae; [1]) [mm] | MLD (Artemia salina) [µg/mL] | zone of inhibition at 50 µg/disc (Bacillus subtilis; [1]) | zone of inhibition at 50 µg/disc (Escherichia coli; [1]) [mm] | zone of inhibition at 50 µg/disc (Staphylococcus aureus) | zone of inhibition at 50 µg/disc (Saccharomyces cerevisiae; read-out: IZ) [mm] | zone of inhibition at 50 µg/disc (Bacillus subtilis; read-out: IZ) | zone of inhibition at 50 µg/disc (Escherichia coli; read-out: IZ) [mm]
CCCCCCCCCC[C@H](C)/C=C(C)/C=C/C(=O)OC | 0 | 4.9 | 81 | 0 | 56.7 |  |  | 
C=C(CC/C=C/C=C/CC(C)C)C[C@@H](C)C/C(C)=C/C(=O)OC | 0 | 1.7 | 74.9 | 0 | 84.1 |  |  | 
CC[C@H](C)/C=C/C(C)=C/C[C@H](C)/C=C/C=C/C(=O)OC | 0 | 10.2 |  | 0 | 49 |  |  | 
C=C/C(C)=C/C[C@H](C)/C=C(C)/C=C(C)\C=C\C=C\C(=O)OC | 0 | 1.1 | 89 | 0 | 62.4 |  |  | 
CC[C@@H](C)CC/C=C/C(C)=C/[C@H](C)C/C=C/C=C/C(=O)OC |  | 5 |  |  |  | 0 | 78.1 | 0
